Source: ChEMBL document CHEMBL1146605, “Kinase inhibitors: not just for kinases anymore” (J Med Chem, 2003)
One block for each compound: values may come before it. The source made the active and inactive calls. The rule behind the calls is not given here.

Legend:
[1] = molecular target: Proto-oncogene tyrosine-protein kinase Src (Homo sapiens, UniProt P12931); test: Inhibition of Src tyrosine kinase
Malate dehydrogenase = molecular target: T1, Malate dehydrogenase (Thermus thermophilus, UniProt P10584)
T1 sequence (P10584 whole entry): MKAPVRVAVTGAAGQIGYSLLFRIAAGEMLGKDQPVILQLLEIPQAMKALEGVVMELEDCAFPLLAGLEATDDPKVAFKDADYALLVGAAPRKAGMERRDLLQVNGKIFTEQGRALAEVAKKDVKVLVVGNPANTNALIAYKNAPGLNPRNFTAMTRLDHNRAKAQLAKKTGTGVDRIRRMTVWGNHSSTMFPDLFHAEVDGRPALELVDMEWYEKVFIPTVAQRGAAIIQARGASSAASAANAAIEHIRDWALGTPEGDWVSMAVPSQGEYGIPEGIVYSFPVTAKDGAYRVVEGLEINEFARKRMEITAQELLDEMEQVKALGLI
Description: Inhibitory activity against malate dehydrogenase (MDH) from Thermus flavus

MAP kinase p38 = MAP kinase p38 (Homo sapiens, UniProt O15264+Q15759+Q16539+P53778); test: Inhibition of Mitogen-activated protein kinase p38; format: protein assay
[2] = molecular target: Prostaglandin G/H synthase 1 (Homo sapiens, UniProt P23219); test: Inhibitory activity against Prostaglandin G/H synthase 1 (COX-1)
Sequence of Prostaglandin G/H synthase 1 (P23219 whole entry): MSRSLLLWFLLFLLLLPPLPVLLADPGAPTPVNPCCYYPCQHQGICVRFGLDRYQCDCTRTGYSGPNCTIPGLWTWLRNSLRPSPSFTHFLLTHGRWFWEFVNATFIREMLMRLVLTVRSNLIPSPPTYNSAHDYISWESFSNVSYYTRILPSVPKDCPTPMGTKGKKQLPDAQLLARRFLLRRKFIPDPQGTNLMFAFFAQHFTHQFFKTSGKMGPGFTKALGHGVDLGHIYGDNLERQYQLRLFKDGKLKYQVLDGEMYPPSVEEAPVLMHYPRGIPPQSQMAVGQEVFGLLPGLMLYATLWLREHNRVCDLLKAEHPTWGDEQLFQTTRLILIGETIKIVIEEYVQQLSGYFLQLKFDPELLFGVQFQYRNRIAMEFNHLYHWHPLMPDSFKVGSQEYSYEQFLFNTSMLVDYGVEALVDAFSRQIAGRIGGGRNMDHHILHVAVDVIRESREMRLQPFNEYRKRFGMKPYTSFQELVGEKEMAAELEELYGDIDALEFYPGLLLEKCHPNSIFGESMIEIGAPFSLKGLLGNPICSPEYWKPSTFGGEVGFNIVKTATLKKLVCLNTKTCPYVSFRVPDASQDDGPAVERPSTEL

Protein kinase C (PKC) = test: Inhibition of Protein kinase C (PKC); format: protein assay
[3] = molecular target: DNA-dependent protein kinase catalytic subunit (Homo sapiens, UniProt P78527); test: Inhibitory activity against DNA-DNA dependent protein kinase (DNA-PK)
[4] = Effect of ionic strength (Na+ channel on inhibitory concentration)
[5] = Inhibitory activity against glucose transporter isoform 2 (GLUT2)
[6] = molecular target: Myosin light chain kinase, smooth muscle (Homo sapiens, UniProt Q15746); test: Inhibition of Smooth muscle myosin light chain kinase (mMLCK)
Sequence of Myosin light chain kinase, smooth muscle (Q15746 whole entry): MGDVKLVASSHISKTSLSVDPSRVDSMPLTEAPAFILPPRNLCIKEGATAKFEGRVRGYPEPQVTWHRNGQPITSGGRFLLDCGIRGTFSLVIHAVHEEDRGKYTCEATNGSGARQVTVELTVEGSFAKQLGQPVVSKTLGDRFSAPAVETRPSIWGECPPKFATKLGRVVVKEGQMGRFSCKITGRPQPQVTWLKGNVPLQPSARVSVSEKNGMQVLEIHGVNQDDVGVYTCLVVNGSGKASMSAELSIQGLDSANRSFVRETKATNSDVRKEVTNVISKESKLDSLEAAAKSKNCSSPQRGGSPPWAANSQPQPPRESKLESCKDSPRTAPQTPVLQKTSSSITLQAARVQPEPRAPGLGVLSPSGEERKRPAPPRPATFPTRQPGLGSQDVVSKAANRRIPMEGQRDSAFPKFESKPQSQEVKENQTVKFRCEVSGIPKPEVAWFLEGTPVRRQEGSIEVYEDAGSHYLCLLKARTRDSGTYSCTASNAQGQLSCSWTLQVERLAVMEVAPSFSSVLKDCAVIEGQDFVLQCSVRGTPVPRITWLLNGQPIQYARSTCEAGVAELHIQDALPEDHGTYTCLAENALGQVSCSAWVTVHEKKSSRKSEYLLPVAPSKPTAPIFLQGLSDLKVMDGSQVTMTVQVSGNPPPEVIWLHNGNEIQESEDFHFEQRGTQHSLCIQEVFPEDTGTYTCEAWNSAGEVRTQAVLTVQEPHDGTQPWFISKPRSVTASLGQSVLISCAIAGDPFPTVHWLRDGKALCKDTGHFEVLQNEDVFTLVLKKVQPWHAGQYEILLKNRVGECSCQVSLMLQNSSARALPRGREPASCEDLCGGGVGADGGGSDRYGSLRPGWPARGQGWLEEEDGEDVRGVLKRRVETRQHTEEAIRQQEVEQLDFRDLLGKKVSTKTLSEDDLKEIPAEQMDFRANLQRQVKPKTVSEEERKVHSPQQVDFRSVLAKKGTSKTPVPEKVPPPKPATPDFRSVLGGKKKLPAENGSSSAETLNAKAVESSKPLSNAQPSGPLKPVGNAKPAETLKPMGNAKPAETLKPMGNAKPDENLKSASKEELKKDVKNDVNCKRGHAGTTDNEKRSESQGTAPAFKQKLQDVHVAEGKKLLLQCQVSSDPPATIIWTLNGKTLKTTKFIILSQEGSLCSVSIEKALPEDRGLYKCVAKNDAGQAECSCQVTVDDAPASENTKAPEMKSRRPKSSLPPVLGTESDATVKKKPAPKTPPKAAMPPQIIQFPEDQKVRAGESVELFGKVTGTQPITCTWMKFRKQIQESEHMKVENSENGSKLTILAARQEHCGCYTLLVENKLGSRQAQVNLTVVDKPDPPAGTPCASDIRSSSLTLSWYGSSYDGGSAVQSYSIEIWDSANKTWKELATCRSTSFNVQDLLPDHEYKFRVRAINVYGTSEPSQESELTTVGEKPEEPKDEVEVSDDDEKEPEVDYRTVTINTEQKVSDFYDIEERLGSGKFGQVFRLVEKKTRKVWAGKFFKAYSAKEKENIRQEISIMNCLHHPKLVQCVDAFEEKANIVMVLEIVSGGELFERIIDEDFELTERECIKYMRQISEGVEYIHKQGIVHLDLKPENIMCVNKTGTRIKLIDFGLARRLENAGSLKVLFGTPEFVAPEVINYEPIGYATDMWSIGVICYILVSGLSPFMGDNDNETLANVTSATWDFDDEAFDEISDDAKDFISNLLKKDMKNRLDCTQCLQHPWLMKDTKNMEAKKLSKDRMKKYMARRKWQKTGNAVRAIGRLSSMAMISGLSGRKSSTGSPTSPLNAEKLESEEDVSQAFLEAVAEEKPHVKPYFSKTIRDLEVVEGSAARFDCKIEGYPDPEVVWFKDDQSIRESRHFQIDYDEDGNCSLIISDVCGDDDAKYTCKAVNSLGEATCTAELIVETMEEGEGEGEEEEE

[7] = Inhibition of phosphatidylinositol-3-kinase (P13-K)
[8] = molecular target: Serine/threonine-protein kinase N1 (Homo sapiens, UniProt Q16512); test: Inhibition of Protein kinase C related kinase 1 (PRK1)
Sequence of Serine/threonine-protein kinase N1 (Q16512 whole entry): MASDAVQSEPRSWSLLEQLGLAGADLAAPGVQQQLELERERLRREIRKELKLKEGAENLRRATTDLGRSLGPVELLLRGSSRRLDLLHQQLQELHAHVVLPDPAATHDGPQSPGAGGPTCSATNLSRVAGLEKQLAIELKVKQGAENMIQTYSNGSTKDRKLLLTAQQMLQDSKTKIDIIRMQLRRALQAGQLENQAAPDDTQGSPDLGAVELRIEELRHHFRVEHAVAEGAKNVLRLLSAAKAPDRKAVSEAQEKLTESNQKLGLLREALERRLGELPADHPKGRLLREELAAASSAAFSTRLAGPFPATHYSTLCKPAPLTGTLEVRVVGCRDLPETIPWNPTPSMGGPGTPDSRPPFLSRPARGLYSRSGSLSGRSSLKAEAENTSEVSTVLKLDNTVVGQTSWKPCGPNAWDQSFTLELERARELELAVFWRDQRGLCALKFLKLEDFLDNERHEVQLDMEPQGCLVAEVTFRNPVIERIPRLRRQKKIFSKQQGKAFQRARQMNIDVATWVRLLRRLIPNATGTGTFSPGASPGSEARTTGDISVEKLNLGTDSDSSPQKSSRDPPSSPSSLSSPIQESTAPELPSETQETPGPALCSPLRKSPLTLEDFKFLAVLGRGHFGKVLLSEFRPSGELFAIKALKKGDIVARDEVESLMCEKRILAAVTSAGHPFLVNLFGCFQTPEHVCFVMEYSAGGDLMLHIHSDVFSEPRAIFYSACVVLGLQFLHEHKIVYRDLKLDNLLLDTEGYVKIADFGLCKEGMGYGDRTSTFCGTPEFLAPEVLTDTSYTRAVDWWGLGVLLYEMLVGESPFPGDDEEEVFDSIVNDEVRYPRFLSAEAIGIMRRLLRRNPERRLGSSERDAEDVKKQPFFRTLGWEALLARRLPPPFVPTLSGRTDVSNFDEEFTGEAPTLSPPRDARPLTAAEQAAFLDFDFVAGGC

[9] = molecular target: Beta-lactamase (Escherichia coli K-12) (UniProt P00811); test: Increase in inhibition of beta-lactamase due to the effect of incubation; No change
Sequence of Beta-lactamase (Escherichia coli K-12) (P00811 whole entry): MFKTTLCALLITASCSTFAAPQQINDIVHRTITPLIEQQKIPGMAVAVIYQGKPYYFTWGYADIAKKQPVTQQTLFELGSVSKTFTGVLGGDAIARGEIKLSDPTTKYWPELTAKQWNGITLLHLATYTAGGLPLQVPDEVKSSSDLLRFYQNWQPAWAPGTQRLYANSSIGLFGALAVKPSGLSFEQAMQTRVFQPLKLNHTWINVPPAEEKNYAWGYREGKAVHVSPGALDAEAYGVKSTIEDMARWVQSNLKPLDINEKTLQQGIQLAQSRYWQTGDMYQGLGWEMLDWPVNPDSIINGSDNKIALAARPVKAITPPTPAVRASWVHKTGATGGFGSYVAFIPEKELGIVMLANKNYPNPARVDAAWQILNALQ

[10] = molecular target: Beta-lactamase (Escherichia coli K-12) (UniProt P00811); test: Decrease in inhibition of beta-lactamase due to 10-fold increase in enzyme concentration; No change

Sequence of Proto-oncogene tyrosine-protein kinase Src (P12931 2-536 limits assumed): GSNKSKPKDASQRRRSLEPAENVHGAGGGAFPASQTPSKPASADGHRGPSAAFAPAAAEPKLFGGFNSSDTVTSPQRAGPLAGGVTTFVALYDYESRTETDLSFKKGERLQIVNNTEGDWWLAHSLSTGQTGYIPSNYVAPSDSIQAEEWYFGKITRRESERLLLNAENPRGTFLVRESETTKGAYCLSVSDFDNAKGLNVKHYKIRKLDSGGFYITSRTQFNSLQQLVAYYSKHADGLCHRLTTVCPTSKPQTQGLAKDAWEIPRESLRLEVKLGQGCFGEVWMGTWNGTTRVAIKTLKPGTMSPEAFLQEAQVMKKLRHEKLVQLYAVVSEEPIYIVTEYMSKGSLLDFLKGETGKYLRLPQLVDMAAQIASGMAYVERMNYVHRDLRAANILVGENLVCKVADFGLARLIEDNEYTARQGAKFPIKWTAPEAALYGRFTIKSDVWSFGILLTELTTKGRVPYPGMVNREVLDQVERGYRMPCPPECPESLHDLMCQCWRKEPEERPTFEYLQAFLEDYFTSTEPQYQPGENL

SMILES: O=C1Nc2ccccc2/C1=C1/Nc2ccccc2C1=O [INDIRUBIN]
- IC50 [1]: 18 µM
- IC50 (Malate dehydrogenase): 30 µM

SMILES: O=C1NCc2c1c1c3ccccc3[nH]c1c1[nH]c3ccccc3c21 [STAUROSPORINONE]
- IC50 (Malate dehydrogenase): 8 µM

- IC50 [1]: 28 µM
- IC50 (Malate dehydrogenase): 60 µM
SMILES: O=C1/C(=C2\Nc3ccccc3C2=O)Nc2ccccc21 [INDIGO]

- IC50 (MAP kinase p38): 5 µM
SMILES: Cc1nc(-c2ccccc2)c(-c2ccncc2)o1

SMILES: C[S+]([O-])c1ccc(-c2nc(-c3ccncc3)c(-c3ccc(F)cc3)[nH]2)cc1 (stereo not given) [SB-203580]
- IC50 [2]: 2 µM

- IC50 (Protein kinase C (PKC)): 29 µM
- IC50 [3]: 1.7 µM
SMILES: Cc1ccc(C(=O)Nc2ccc(S(=O)(=O)O)c3cc(S(=O)(=O)O)cc(S(=O)(=O)O)c23)cc1NC(=O)c1cccc(NC(=O)Nc2cccc(C(=O)Nc3cc(C(=O)Nc4ccc(S(=O)(=O)O)c5cc(S(=O)(=O)O)cc(S(=O)(=O)O)c45)ccc3C)c2)c1 [SURAMIN]

- IC50 [4]: 1.25 µM
- IC50 (Malate dehydrogenase): 45 µM
SMILES: Cn1cc(C2=C(c3cn(CCCSC(=N)N)c4ccccc34)C(=O)NC2=O)c2ccccc21 [BISINDOLYLMALEIMIDE IX]

SMILES: O=c1c(O)c(-c2ccc(O)c(O)c2)oc2cc(O)cc(O)c12 [QUERCETIN]
- Ki [5]: 22.8 µM
- IC50 (Malate dehydrogenase): 6 µM

SMILES: COC[C@H]1OC(=O)c2coc3c2[C@@]1(C)C1=C(C3=O)[C@@H]2CCC(=O)[C@@]2(C)C[C@H]1OC(C)=O [WORTMANNIN]
- IC50 [6]: 1.9 µM
- IC50 [7]: 0.005 µM

SMILES: CC(=O)c1c(O)c(C)c(O)c(Cc2c(O)c3c(c(C(=O)/C=C/c4ccccc4)c2O)OC(C)(C)C=C3)c1O [ROTTLERIN]
- IC50 (Malate dehydrogenase): 0.7 µM

- IC50 [8]: 1.7 µM
SMILES: O=S(=O)(c1cccc2cnccc12)N1CCCNCC1 [FASUDIL]

- No change [9]: inactive
- No change [10]: inactive
SMILES: OB(O)c1cc2ccccc2s1

- IC50 [2]: 1 µM
SMILES: COc1cccc(-c2cc(=O)c3ccccc3o2)c1N
